A short description of series [1]: Microsome stability, human. In kind it is in vitro ADME. As to conditions: parent (as sodium salt) remaining after 30 min, human microsomes. As for the experimental part: (§1) Microsome stability was carried out at Cyprotex using pooled human liver microsomes (male and female), pooled rat liver microsomes (male, Sprague Dawley rats), pooled mouse liver microsomes (male CD-1 mice) which were either prepared or purchased from a reputable commercial supplier. […] The final incubation volume was 25 μL. A control incubation was included for each compound tested where 0.1 M phosphate buffer pH 7.4 was added instead of NADPH (minus NADPH). Two control compounds were included with each species. All incubations were performed singularly for each test compound. Each compound was incubated for 0, 5, 15, 30 and 45 min. The control (minus NADPH) was incubated for 45 min only. The reactions were stopped by the addition of 50 μL methanol containing internal standard at the appropriate time points. The incubation plates were centrifuged at 2,500 rpm for 20 min at 4 °C to precipitate the protein. Following precipitation, the sample supernatants were combined in cassettes of up to 4 compounds and analysed using Cyprotex generic LC-MS/MS conditions. From a plot of ln peak area ratio (compound peak area/internal standard peak area) against time, the percentage compound remaining at 30 min was calculated. Results that were > 100% of matched control were defined as 100%.

Series [2] can be described thus: Toxicity to KHYG1 NK cells (Trypan blue exclusion). In kind it is cell-based, human. As to conditions: human, viability of KHYG1 NK cells after 24 h, n = 3. As for the experimental part:
(§2) The toxicity assay was carried out in exactly the same manner as the killing assay above, but instead of adding the labelled K562 target cells, 100 μL of RPMI 0.1% BSA was added. Cells were incubated for 4 h at 37 °C and then washed ×3 in RPMI + 0.1% BSA. […] Trypan blue was added to each well. Viable (clear) cells and total (clear + blue) cells were counted, and the percentage of viable cells was calculated compared to DMSO treated cell control (% viability).

Series [3] can be described thus: Solubility of the sodium salt in water. The note with it: sodium salt in water at room temperature. In kind it is physicochemical. As for the experimental part:
The compound was dissolved in water until it was no longer soluble in order to achieve a supersaturated concentration. The suspensions were sonicated for 15 min. prior to centrifugation at 13,000 revolutions per minute (rpm) for 6 minutes. Supernatants were removed and then recentrifuged prior to dilution of at least two fold in water to avoid precipitation during HPLC analysis.

Another series is described as follows: Microsome stability, rat. In kind it is in vitro ADME. The note with it: parent (as sodium salt) remaining after 30 min, rat microsomes. As for the experimental part: as §1
Series [4] in a line: Stability in solution (water, 20 °C, 24 h). In kind it is physicochemical. As to conditions: sodium salt, 24 h at 20 °C in water. As for the experimental part:
Test compounds were incubated (10 μM; < 2.5% DMSO in final concentration) in Milli Q water (n=3 tubes) at 20 °C for 24 h. (Eppendorf Thermomixer Comfort). Aliquots were collected (25 μL) just before the incubation (time “0 min”) and at 24 h. These samples were stored in a -80 °C freezer until the analysis by liquid chromatography with tandem mass spectrometry spectrometry (LC-MS/MS) – see next section for method development. Samples were thawed on wet ice on the day of assay. Thawed aliquots were mixed by vortex mixer, 10 μL of the sample transferred to a clean tube, 40 μL of ice cold acetonitrile added (containing internal standard compound), then centrifuged at 13,000 rpm for 5 min, 40 μL of clear supernatant transferred to an HPLC insert and mixed with 80 μL of 0.01% formic acid in water. Ten to 20 μL was injected onto the LC-MS/MS system. Results are based on the peak area ratio of drug to internal standard at time “0 h” (i.e. before the incubation and at the end i.e. “24 h”).

The target in series [5] is T1, perforin delivered by KHYG1 NK cells (Homo sapiens, UniProt P14222).
T1 construct: The use of whole NK cells to deliver perforin provides a more realistic model of conditions in vivo; endogenous in cells; host or cells: KHYG1 human NK cells (effector); K562 leukemia target cells
T1 sequence (P14222 22-555): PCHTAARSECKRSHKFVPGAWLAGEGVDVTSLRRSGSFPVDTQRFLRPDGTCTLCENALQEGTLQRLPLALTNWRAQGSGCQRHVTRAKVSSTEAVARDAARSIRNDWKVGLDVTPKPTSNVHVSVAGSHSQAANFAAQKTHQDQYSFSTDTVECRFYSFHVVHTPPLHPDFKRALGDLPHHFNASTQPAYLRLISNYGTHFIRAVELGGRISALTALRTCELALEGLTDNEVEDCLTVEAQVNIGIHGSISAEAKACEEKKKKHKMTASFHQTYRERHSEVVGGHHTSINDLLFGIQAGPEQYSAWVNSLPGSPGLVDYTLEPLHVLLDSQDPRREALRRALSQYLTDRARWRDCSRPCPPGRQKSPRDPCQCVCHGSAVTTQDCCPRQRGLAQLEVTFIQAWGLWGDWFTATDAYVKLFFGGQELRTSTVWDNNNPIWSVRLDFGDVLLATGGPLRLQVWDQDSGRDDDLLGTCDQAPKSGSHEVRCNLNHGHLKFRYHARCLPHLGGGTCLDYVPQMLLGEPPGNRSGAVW
Put plainly: KHYG1 inhibitory assay: lysis of 51Cr-labelled K562 target cells by KHYG1 NK cells. The note with it: 51Cr-labelled K562 target cells co-incubated with KHYG1 human NK cells, vs untreated control; for inhibition at 10 µM: n = 4; for KHYG1 Inhibition (% at 10 μM): n = 4, 10 µM. In kind it is cell-based. Here is the method:
The inhibitory function is then determined by identifying the number of untreated or inhibitor treated effector cells required to kill the same number of targets.

A short description of series [6]: In vivo plasma pharmacokinetics in mice. As to conditions: mouse plasma, 10 mg/kg i.p. in 20% hydroxypropyl-β-cyclodextrin. As for the experimental part: The in vivo PK parameters were measured for seven compounds selected on the basis of the in vitro assessment described above. Plasma pharmacokinetics were determined in male CD-1 mice for compounds 3, 10, 11, 26, 50, 58 and 59 (Table 6). Blood samples were collected at 5–8 time-points after dosing the compounds at 10 mg/kg in a solution of 20% hydroxypropyl-β-cyclodextrin by intraperitoneal (IP) injection. For analysis of the samples, chromatographic conditions were optimised by HPLC for each compound of interest and an internal standard. A liquid chromatography with tandem mass spectrometry (LC-MS/MS) method was then developed and validated for quantitation of each analyte.
PK studies were carried out in female C57BL/6J (female) mice using IP administration of test compound, dosing at 10 mg/kg in a solution of 20% hydroxypropyl-β-cyclodextrin. Mice (n=3 at each time point) were culled with excess inhalation of CO2 and blood collected by cardiac puncture at 5-8 time points after dosing in ice cold EDTA tubes. Plasma was separated by centrifuging at 6000 rpm for 5 min and stored at -80°C until analysis by LC-MS/MS. Frozen plasma was thawed on wet ice on the day of analysis. Ten μL of sample was transferred to a clean microcentrifuge tube and mixed with ice cold acetonitrile (40 μL containing internal standard) to precipitate the plasma proteins. The tubes were centrifuged at 13000 rpm for 5 min to obtain a clear supernatant which was mixed with 0.01% formic acid-water (1:2). Ten to twenty µL was injected into the LC-MS/MS to measure the analyte concentration in the sample. The samples were quantitated against a calibration curve of known analyte concentrations run in test species blank plasma (sourced from Innovative Research, USA). The concentration vs time data was then fitted into a pharmacokinetic software program (Phoenix WinNonlin v6.2) to calculate the PK parameters including T½, Cmax and AUC0-∞.

A short description of series [7]: Microsome stability, mouse. In kind it is in vitro ADME. The note with it: parent (as sodium salt) remaining after 30 min, mouse microsomes. As for the experimental part:
as §1

For another series, the target named is T2, recombinant perforin (Mus musculus, UniProt P10820).
T2 sequence (P10820 21-554): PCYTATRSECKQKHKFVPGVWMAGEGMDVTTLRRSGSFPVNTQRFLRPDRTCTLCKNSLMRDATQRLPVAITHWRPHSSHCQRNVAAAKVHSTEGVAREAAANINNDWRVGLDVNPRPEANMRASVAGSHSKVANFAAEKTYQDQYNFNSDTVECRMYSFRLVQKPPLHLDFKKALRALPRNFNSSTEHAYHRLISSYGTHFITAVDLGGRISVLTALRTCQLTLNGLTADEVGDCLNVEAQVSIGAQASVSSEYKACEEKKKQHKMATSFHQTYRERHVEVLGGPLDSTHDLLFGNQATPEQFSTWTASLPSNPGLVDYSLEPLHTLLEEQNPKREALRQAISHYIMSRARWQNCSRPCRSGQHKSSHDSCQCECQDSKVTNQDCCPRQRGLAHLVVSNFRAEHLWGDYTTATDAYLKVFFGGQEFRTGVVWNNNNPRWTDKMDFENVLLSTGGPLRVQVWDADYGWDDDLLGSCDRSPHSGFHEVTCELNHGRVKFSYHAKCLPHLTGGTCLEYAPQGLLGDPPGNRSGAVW
Put plainly: Inhibition of perforin-mediated lysis of Jurkat cells (51Cr release). In kind it is cell-based. The note with it: recombinant perforin pre-incubated with compound 30 min; 51Cr-labelled Jurkat cells, 0.1% BSA, 4 h. From the text: The supernatant was collected and assessed for its radioactive content on a gamma counter (Wallac Wizard 1470 automatic gamma counter).

Another series has as its system KHYG1 NK cells. Put plainly: Toxicity to KHYG1 NK cells (Trypan blue exclusion). In kind it is cell-based, human. The note with it: viability of KHYG1 NK cells after 24 h, n = 3. Here is the method: as §2

What is called viability is a read-out of living cells in per cent, often relative to untreated cells. A higher viability goes with less harm to the cells. In general, solubility refers to the dissolved amount per volume that the medium holds. What is called inhibition is the drop in the measured response relative to a control, in per cent. As a reminder, the Cmax is the peak of the concentration-time curve. What is called melting point is the temperature, or range, at which the solid turns liquid.

Each structure is given as a SMILES string.

For `CN1Cc2cc(-c3ccc(-c4cnc(F)c(NS(=O)(=O)c5ccc(F)cc5F)c4)s3)ccc2C1=O` [Compound 10, 2,4-Difluoro-N-(2-fluoro-5-(5-(2-methyl-1-oxoisoindolin-5-yl)thiophen-2-yl)pyridin-3-yl)benzenesulphonamide], the “Microsome Stability (%) Human” value in series [1] was 94%. This molecule showed a viability at 24 h, 10 µM in [2] of 92 ± 3%. In addition, in series [3], the Solubility result was “negative impact on solubility” and the solubility at 15 min came out at 428 µg/mL. In the series “Microsome stability, rat”, the “Microsome Stability (%) Rat” value was found to be 100%. Further, the “Stability in Solution (% parent remaining)” value in [4] is 100%. Moreover, in series [5], the inhibition at 10 µM came out at 93% and the “KHYG1 Inhibition (% at 10 μM)” value is 92.5 ± 1.8%. Further, in series [6], the “AUC0-∞” value was 2885 µM·h, the maximum concentration (Cmax) came to 236 µM and the T1/2 is recorded as 6.6 h. Further, the “Microsome Stability (%) Mouse” value in [7] was 96%.
Regarding `CN1Cc2cc(-c3ccc(-c4cnc(Cl)c(NS(=O)(=O)c5ccc(F)cc5F)c4)s3)ccc2C1=O` [Compound 11, 2,4-Difluoro-N-(2-chloro-5-(5-(2-methyl-1-oxoisoindolin-5-yl)thiophen-2-yl)pyridin-3-yl)benzenesulphonamide], the “Microsome Stability (%) Human” value in [1] is 95%. Besides, the viability at 24 h, 10 µM in [2] amounted to 94 ± 5.3%. In series [3], the solubility at 15 min turned out to be 4030 µg/mL. Further, the “Microsome Stability (%) Rat” value in the series “Microsome stability, rat” came to 99%. Besides, in [4], the “Stability in Solution (% parent remaining)” value was 100%. In addition, the inhibition at 10 µM in series [5] came out at 95 ± 2.5%. In addition, in series [6], the “AUC0-∞” value was 2364 µM·h, the highest concentration (Cmax) is 149 µM and the T1/2 was determined as 9.5 h. In addition, in series [7], the “Microsome Stability (%) Mouse” value is listed as 97%.
Consider `Cc1ccc(NS(=O)(=O)c2ccc(F)cc2F)cc1-c1ccc(-c2ccc3c(c2)CN(C)C3=O)s1` [Compound 13, 2,4-Difluoro-N-(4-methyl-3-(5-(2-methyl-1-oxoisoindolin-5-yl)thiophen-2-yl)phenyl)benzenesulfonamide], for which the melting point is 268 to 271 °C. Moreover, in [2], the viability at 24 h, 10 µM worked out at 91.7 ± 10%. Moreover, in series [5], the inhibition at 10 µM was 50% and the “KHYG1 Inhibition (% at 10 μM)” value turned out to be 50.3 ± 8.5%. Besides, the “Inhibition of Jurkat Cell Lysis IC50” value on recombinant perforin is on record as “complete loss of potency”.
Molecule `CN1Cc2cc(-c3ccc(-c4cncc(NS(=O)(=O)c5cccc(C#N)c5)c4)s3)ccc2C1=O` [Compound 49, 3-Cyano-N-(5-(5-(2-methyl-1-oxoisoindolin-5-yl)thiophen-2-yl)pyridin-3-yl)benzenesulfonamide] had a melting point of 282 to 285 °C. In series [2], this molecule came in with a viability at 24 h, 10 µM of 94.4 ± 7.1%. Also, the inhibition at 10 µM in series [5] was 83.7 ± 3.2%. In addition, at recombinant perforin, the “Inhibition of Jurkat Cell Lysis IC50” value is reported as “poor activity”.
With `CN1Cc2cc(-c3ccc(-c4cncc(NS(=O)(=O)c5ccc(C(=O)O)cc5)c4)s3)ccc2C1=O` [Compound 55, 4-(N-(5-(5-(2-Methyl-1-oxoisoindolin-5-yl)thiophen-2-yl)pyridin-3-yl)sulfamoyl)benzoic acid], the melting point was greater than 310 °C. Further, the “KHYG1 Viability (% at 10 μM)” value in the series with KHYG1 NK cells is reported as “toxic to the NK cells”.
Take `CN1Cc2cc(-c3ccc(-c4cncc(NS(=O)(=O)c5ccccc5[N+](=O)[O-])c4)s3)ccc2C1=O` [Compound 58, N-(5-(5-(2-Methyl-1-oxoisoindolin-5-yl)thiophen-2-yl)pyridin-3-yl)-2-nitrobenzenesulfonamide]: in series [1], the “Microsome Stability (%) Human” value came out at 73%. In addition, in [2], the viability at 24 h, 10 µM was 98.7 ± 1.5%. Moreover, in [3], the solubility at 15 min worked out at 671 µg/mL. In the series “Microsome stability, rat”, the “Microsome Stability (%) Rat” value was 89%. The “Stability in Solution (% parent remaining)” value in [4] was 100%. Besides, in [5], the inhibition at 10 µM was found to be 96% and the “KHYG1 Inhibition (% at 10 μM)” value is recorded as 95.6 ± 1.9%. Further, in [6], the “AUC0-∞” value is 415 µM·h, the concentration peaked (Cmax) at 105 µM and the T1/2 was determined as 2.5 h. The “Microsome Stability (%) Mouse” value in series [7] came out at 100%.

The record behind these values is article PMC5500991, “Substituted arylsulphonamides as inhibitors of perforin-mediated lysis” (European Journal of Medicinal Chemistry, 2017).
